Tests used:
Study 2 hematology = assay type: in vivo, human
Experimental: (§1) Study 2 design. Study 2 was conducted similar to study 1 with the following modifications. In study 2, plasma levels of HMB were measured for 1440 min (24 h) and total urine collection was also performed for measurement of urinary HMB excretion during this period. After the 180 min blood sample, the subjects were allowed to leave the laboratory and were instructed to return to the laboratory for additional blood samples at 360, 720, and 1440 min after the ingestion of the supplement. As in study 1, each subject took each of the treatments with at least a one week washout period between treatments. Samples were again stored frozen at −70° C. for analysis of plasma and urinary HMB concentrations. Pre-ingestion, 180 min and 1440 min blood samples were again assayed for the same measurements already for study 1. Subjects were provided with a standardized lunch after the 180 min blood sampling and instructed to eat this at approximately 240 min post ingestion. Following the 720 min blood sample, subjects were instructed to eat a normal evening meal before 10 pm. Subjects reported back to the laboratory the following morning for the fasted 1440 min blood sample. A urine collection container was provided and subjects collected all urine produced during the experimental 24 h experimental period. The urine was stored refrigerated when not being collected. Urine volumes were measured and samples of the total urine collection were taken and stored frozen at −70° C. until analyzed for HMB.
(§2) The data were analyzed using a crossover design with Proc GLM in SAS. (45) For the timed sampling of plasma HMB a repeated measures polynomial model was used. The model included subject, order, and treatment main effects and time by treatment interaction where appropriate. For other parameters Proc GLM was also used with subject, order, and treatment main effects and the p values are reported for the treatment main effect. Statistical significance was determined for p<0.05 and a trend was determined for 0.05<p<0.10.

Study 2 blood chemistry = assay type: in vivo, human; conditions: for Aspartate Aminotransferase / Gamma-glutamyl: in U/L (unit assumed)
Experimental: as §1, §2

SMILES: CC(C)(O)CC(=O)O [HMB-Acid Gel Sublingual, 3-hydroxy-3-methylbutyric acid]
- Basophils (absolute) (Study 2 hematology; After (24 h)): 0.04 ± 0.0 ×10^3/μL
- Basophils, % (Study 2 hematology; After (24 h)): 0.4 ± 0.2%
- Eosinophils (absolute) (Study 2 hematology; After (24 h)): 0.2 ± 0.03 ×10^3/μL
- Eosinophils, % (Study 2 hematology; After (24 h)): 3.3 ± 0.5%
- Hematocrit (Study 2 hematology; After (24 h)): 38.6 ± 1.3%
- Hemoglobin (Study 2 hematology; After (24 h)): 13.2 ± 0.5 g/dL
- Lymphocytes (absolute) (Study 2 hematology; After (24 h)): 3.1 ± 0.3 ×10^3/μL
- Lymphocytes, % (Study 2 hematology; After (24 h)): 45.6 ± 3.4%
- MCH (Study 2 hematology; After (24 h)): 30.5 ± 0.5 pg
- MCHC (Study 2 hematology; After (24 h)): 34.5 ± 0.2 g/dL
- MCV (Study 2 hematology; After (24 h)): 89.3 ± 1.4 fL
- Monocytes (absolute) (Study 2 hematology; After (24 h)): 0.6 ± 0.05 ×10^3/μL
- Monocytes, % (Study 2 hematology; After (24 h)): 8.4 ± 0.9%
- Neutrophils (absolute) (Study 2 hematology; After (24 h)): 2.9 ± 0.3 ×10^3/μL
- Neutrophils, % (Study 2 hematology; After (24 h)): 42.4 ± 3.5%
- Platelets (Study 2 hematology; After (24 h)): 244.3 ± 17.5 ×10^3/μL
- RBC (Study 2 hematology; After (24 h)): 4.3 ± 0.1 ×10^6/µL
- RDW (Study 2 hematology; After (24 h)): 13.4 ± 0.2%
- WBC (Study 2 hematology; After (24 h)): 6.8 ± 0.3 ×10^3/μL
- Basophils (absolute) (Study 2 hematology; Before): 0.06 ± 0.02 ×10^3/μL
- Basophils, % (Study 2 hematology; Before): 0.6 ± 0.2%
- Eosinophils (absolute) (Study 2 hematology; Before): 0.2 ± 0.04 ×10^3/μL
- Eosinophils, % (Study 2 hematology; Before): 2.5 ± 0.5%
- Hematocrit (Study 2 hematology; Before): 37.5 ± 1.4%
- Hemoglobin (Study 2 hematology; Before): 13.2 ± 0.5 g/dL
- Lymphocytes (absolute) (Study 2 hematology; Before): 3.0 ± 0.3 ×10^3/μL
- Lymphocytes, % (Study 2 hematology; Before): 43.1 ± 4.2%
- MCH (Study 2 hematology; Before): 30.4 ± 0.5 pg
- MCHC (Study 2 hematology; Before): 34.5 ± 0.2 g/dL
- MCV (Study 2 hematology; Before): 88.4 ± 1.5 fL
- Monocytes (absolute) (Study 2 hematology; Before): 0.6 ± 0.05 ×10^3/μL
- Monocytes, % (Study 2 hematology; Before): 8.3 ± 1.0%
- Neutrophils (absolute) (Study 2 hematology; Before): 3.3 ± 0.5 ×10^3/μL
- Neutrophils, % (Study 2 hematology; Before): 45.3 ± 5.2%
- Platelets (Study 2 hematology; Before): 233.8 ± 14.2 ×10^3/μL
- RBC (Study 2 hematology; Before): 4.3 ± 0.1 ×10^6/µL
- RDW (Study 2 hematology; Before): 13.3 ± 0.2%
- WBC (Study 2 hematology; Before): 7.1 ± 0.4 ×10^3/μL
- Basophils (absolute) % Change (Study 2 hematology; Before to After): −40.0%
- Basophils, % - % Change (Study 2 hematology; Before to After): −40.0%
- Eosinophils (absolute) % Change (Study 2 hematology; Before to After): 35.7%
- Eosinophils, % - % Change (Study 2 hematology; Before to After): 30.0%
- Hematocrit % Change (Study 2 hematology; Before to After): 2.9%
- Hemoglobin % Change (Study 2 hematology; Before to After): 0.4%
- Lymphocytes (absolute) % Change (Study 2 hematology; Before to After): 5.0%
- Lymphocytes, % - % Change (Study 2 hematology; Before to After): 5.8%
- MCH % Change (Study 2 hematology; Before to After): 0.3%
- MCHC % Change (Study 2 hematology; Before to After): 0.1%
- MCV % Change (Study 2 hematology; Before to After): 1.0%
- Monocytes (absolute) % Change (Study 2 hematology; Before to After): 0.0%
- Monocytes, % - % Change (Study 2 hematology; Before to After): 1.5%
- Neutrophils (absolute) % Change (Study 2 hematology; Before to After): −12.1%
- Neutrophils, % - % Change (Study 2 hematology; Before to After): −6.4%
- Platelets % Change (Study 2 hematology; Before to After): 4.5%
- RBC % Change (Study 2 hematology; Before to After): 0.1%
- RDW % Change (Study 2 hematology; Before to After): 0.7%
- WBC % Change (Study 2 hematology; Before to After): −3.5%
- A:G Ratio (Study 2 blood chemistry; After (24 h)): 1.8 ± 0.1
- Alanine Aminotransferase (Study 2 blood chemistry; After (24 h)): 16.6 ± 1.8 IU/L
- Albumin (Study 2 blood chemistry; After (24 h)): 4.2 ± 0.1 g/dL
- Alkaline Phosphatase (Study 2 blood chemistry; After (24 h)): 62.8 ± 6.7 IU/L
- Blood Urea Nitrogen (Study 2 blood chemistry; After (24 h)): 15.4 ± 1.1 mg/dL
- CO2 (Study 2 blood chemistry; After (24 h)): 27.9 ± 0.4 mEq/L
- Chloride (Study 2 blood chemistry; After (24 h)): 104.3 ± 0.9 mEq/L
- Cholesterol Ratio (Study 2 blood chemistry; After (24 h)): 3.2 ± 0.2
- Creatinine (Study 2 blood chemistry; After (24 h)): 1.0 ± 0.1 mg/dL
- Direct Bilirubin (Study 2 blood chemistry; After (24 h)): 0.1 ± 0.04 mg/dL
- Globulin (Study 2 blood chemistry; After (24 h)): 2.4 ± 0.1 g/dL
- Glucose (Study 2 blood chemistry; After (24 h)): 80.8 ± 2.1 mg/dL
- HDL (Study 2 blood chemistry; After (24 h)): 51.3 ± 2.8 mg/dL
- Iron (Study 2 blood chemistry; After (24 h)): 65.0 ± 12.1 µg/dL
- Iron Binding Capacity (Study 2 blood chemistry; After (24 h)): 385.0 ± 29.8 µg/dL
- Iron Saturation (Study 2 blood chemistry; After (24 h)): 20.1 ± 4.2%
- LDL (Study 2 blood chemistry; After (24 h)): 90.4 ± 6.8 mg/dL
- Lactate Dehydrogenase (Study 2 blood chemistry; After (24 h)): 151.8 ± 5.2 IU/L
- Phosphorus (Study 2 blood chemistry; After (24 h)): 4.6 ± 0.2 mg/dL
- Potassium (Study 2 blood chemistry; After (24 h)): 4.9 ± 0.1 mEq/L
- Protein (Study 2 blood chemistry; After (24 h)): 6.6 ± 0.2 g/dL
- Sodium (Study 2 blood chemistry; After (24 h)): 142.1 ± 1.1 mEq/L
- Total Bilirubin (Study 2 blood chemistry; After (24 h)): 0.5 ± 0.1 mg/dL
- Total Cholesterol (Study 2 blood chemistry; After (24 h)): 163.3 ± 9.3 mg/dL
- Triglycerides (Study 2 blood chemistry; After (24 h)): 107.6 ± 16.6 mg/dL
- UIBC (Study 2 blood chemistry; After (24 h)): 312.0 ± 35.9 µg/dL
- Uric Acid (Study 2 blood chemistry; After (24 h)): 4.7 ± 0.3 mg/dL
- Aspartate Aminotransferase (Study 2 blood chemistry; After (24 h)): 24.8 ± 2.3
- Gamma-glutamyl (Study 2 blood chemistry; After (24 h)): 13.9 ± 1.0
- A:G Ratio (Study 2 blood chemistry; Before): 1.8 ± 0.1
- Alanine Aminotransferase (Study 2 blood chemistry; Before): 15.3 ± 1.5 IU/L
- Albumin (Study 2 blood chemistry; Before): 4.1 ± 0.1 g/dL
- Alkaline Phosphatase (Study 2 blood chemistry; Before): 66.5 ± 7.3 IU/L
- Blood Urea Nitrogen (Study 2 blood chemistry; Before): 15.3 ± 1.7 mg/dL
- CO2 (Study 2 blood chemistry; Before): 25.3 ± 0.8 mEq/L
- Chloride (Study 2 blood chemistry; Before): 102.1 ± 0.5 mEq/L
- Cholesterol Ratio (Study 2 blood chemistry; Before): 3.1 ± 0.2
- Creatinine (Study 2 blood chemistry; Before): 1.0 ± 0.1 mg/dL
- Direct Bilirubin (Study 2 blood chemistry; Before): 0.1 ± 0.03 mg/dL
- Globulin (Study 2 blood chemistry; Before): 2.3 ± 0.1 g/dL
- Glucose (Study 2 blood chemistry; Before): 73.0 ± 1.8 mg/dL
- HDL (Study 2 blood chemistry; Before): 52.3 ± 3.1 mg/dL
- Iron (Study 2 blood chemistry; Before): 107.6 ± 13.7 µg/dL
- Iron Binding Capacity (Study 2 blood chemistry; Before): 371.9 ± 31.4 µg/dL
- Iron Saturation (Study 2 blood chemistry; Before): 30.1 ± 5.1%
- LDL (Study 2 blood chemistry; Before): 91.3 ± 5.9 mg/dL
- Lactate Dehydrogenase (Study 2 blood chemistry; Before): 163.8 ± 11.9 IU/L
- Phosphorus (Study 2 blood chemistry; Before): 4.1 ± 0.1 mg/dL
- Potassium (Study 2 blood chemistry; Before): 4.0 ± 0.1 mEq/L
- Protein (Study 2 blood chemistry; Before): 6.5 ± 0.2 g/dL
- Sodium (Study 2 blood chemistry; Before): 138.5 ± 0.6 mEq/L
- Total Bilirubin (Study 2 blood chemistry; Before): 0.6 ± 0.1 mg/dL
- Total Cholesterol (Study 2 blood chemistry; Before): 161.6 ± 9.4 mg/dL
- Triglycerides (Study 2 blood chemistry; Before): 93.1 ± 10.6 mg/dL
- UIBC (Study 2 blood chemistry; Before): 264.3 ± 33.3 µg/dL
- Uric Acid (Study 2 blood chemistry; Before): 4.7 ± 0.3 mg/dL
- A:G Ratio % Change (Study 2 blood chemistry; Before to After): −1.4%
- Alanine Aminotransferase % Change (Study 2 blood chemistry; Before to After): 9.0%
- Albumin % Change (Study 2 blood chemistry; Before to After): 2.7%
- Alkaline Phosphatase % Change (Study 2 blood chemistry; Before to After): −5.6%
- Aspartate Aminotransferase % Change (Study 2 blood chemistry; Before to After): 3.7%
- Blood Urea Nitrogen % Change (Study 2 blood chemistry; Before to After): 0.8%
- CO2 % Change (Study 2 blood chemistry; Before to After): 10.4%
- Chloride % Change (Study 2 blood chemistry; Before to After): 2.1%
- Cholesterol Ratio % Change (Study 2 blood chemistry; Before to After): 3.6%
- Creatinine % Change (Study 2 blood chemistry; Before to After): 7.9%
- Direct Bilirubin % Change (Study 2 blood chemistry; Before to After): −12.8%
- Gamma-glutamyl % Change (Study 2 blood chemistry; Before to After): 0.0%
- Globulin % Change (Study 2 blood chemistry; Before to After): 3.2%
- Glucose % Change (Study 2 blood chemistry; Before to After): 10.6%
- HDL % Change (Study 2 blood chemistry; Before to After): −1.9%
- Iron % Change (Study 2 blood chemistry; Before to After): −39.6%
- Iron Binding Capacity % Change (Study 2 blood chemistry; Before to After): 3.5%
- Iron Saturation % Change (Study 2 blood chemistry; Before to After): −33.2%
- LDL % Change (Study 2 blood chemistry; Before to After): −1.0%
- Lactate Dehydrogenase % Change (Study 2 blood chemistry; Before to After): −7.3%
- Phosphorus % Change (Study 2 blood chemistry; Before to After): 11.5%
- Potassium % Change (Study 2 blood chemistry; Before to After): 21.7%
- Protein % Change (Study 2 blood chemistry; Before to After): 2.9%
- Sodium % Change (Study 2 blood chemistry; Before to After): 2.6%
- Total Bilirubin % Change (Study 2 blood chemistry; Before to After): −13.3%
- Total Cholesterol % Change (Study 2 blood chemistry; Before to After): 1.0%
- Triglycerides % Change (Study 2 blood chemistry; Before to After): 15.6%
- UIBC % Change (Study 2 blood chemistry; Before to After): 18.1%
- Uric Acid % Change (Study 2 blood chemistry; Before to After): 0.8%
- Aspartate Aminotransferase (Study 2 blood chemistry; Before): 23.9 ± 3.2
- Gamma-glutamyl (Study 2 blood chemistry; Before): 13.9±1.2

Source: US20210113501A1, “METHOD OF ADMINISTERING BETA-HYDROXY-BETA-METHYLBUTYRATE (HMB)” (Metabolic Technologies, Inc., priority 2009, published 2021)
